In patent US20190077795A1, “ARGININE […] INHIBITORS AND USES THEREOF” (Epizyme, Inc., priority 2014, published 2019):
Where two headings read alike, the source gives them in different places.

Assays:
[1] = biological target: T1, human PRMT1 (Homo sapiens, UniProt Q99873); assay: PRMT1 Biochemical Assay; details: peptide substrate, 3H-SAM Flashplate assay; read-out: PRMT1 IC50
T1 construct: GST-tagged PRMT1; made in house; host or cells: High Five insect cells (baculovirus, pFastBac1)
Source text: (§1) S-adenosylmethionine (SAM), S-adenosylhomocysteine (SAH), bicine, Tween20, dimethylsulfoxide (DMSO), bovine skin gelatin (BSG), and Tris(2-carboxyethyl)phosphine hydrochloride solution (TCEP) were purchased from Sigma-Aldrich at the highest level of purity possible. ^3H-SAM was purchase from American Radiolabeled Chemicals with a specific activity of 80 Ci/mmol. 384-well streptavidin Flashplates were purchased from PerkinElmer.
Recombinant baculovirus were generated according to Bac-to-Bac kit instructions (Life Technologies). […] Infections were carried out at 27° C. for 48 hours, harvested by centrifugation, and stored at −80° C. for purification.
GST-tagged PRMT1 was eluted with 50 mM Tris, 2 mM glutathione, pH 7.8, dialysed in buffer A and concentrated to 1 mg/mL.
General Procedure for PRMT1 Enzyme Assays on Peptide Substrates.
(§2) The assays were all performed in a buffer consisting of 20 mM Bicine (pH=7.6), 1 mM TCEP, 0.005% BSG, and 0.002% Tween 20, prepared on the day of use. […] DMSO (1 ul) was added to Columns 11, 12, 23, 24, rows A-H for the maximum signal control and 1 ul of SAH, a known product and inhibitor of PRMT1, was added to columns 11, 12, 23, 24, rows I-P for the minimum signal control. A cocktail (40 ul) containing the PRMT1 enzyme was added by Multidrop Combi (Thermo-Fisher). The compounds were allowed to incubate with PRMT1 for 30 min at room temperature, then a cocktail (10 ul) containing SAM and peptide was added to initiate the reaction (final volume=51 ul). […] The assays were stopped by the addition of non-radiolabeled SAM (10 ul) to a final concentration of 300 uM, which dilutes the ^3H-SAM to a level where its incorporation into the peptide substrate is no longer detectable. 50 ul of the reaction in the 384-well polypropylene plate was then transferred to a 384-well Flashplate and the biotinylated peptides were allowed to bind to the streptavidin surface for at least 1 hour before being washed once with 0.1% Tween20 in a Biotek ELx405 plate washer. The plates were then read in a PerkinElmer TopCount plate reader to measure the quantity of ^3H-labeled peptide bound to the Flashplate surface, measured as disintegrations per minute (dpm) or alternatively, referred to as counts per minute (cpm).
(§3) Where dpm=disintegrations per minute, cmpd=signal in assay well, and min and max are the respective minimum and maximum signal controls.
(§4) Where top and bottom are the normally allowed to float, but may be fixed at 100 or 0 respectively in a 3-parameter fit. The Hill Coefficient normally allowed to float but may also be fixed at 1 in a 3-parameter fit. Y is the % inhibition and X is the compound concentration.

[2] = biological target: T2, human PRMT6 (Homo sapiens, UniProt Q96LA8); assay: PRMT6 Biochemical Assay
T2 construct: Flag-PRMT6-His; made in house; host or cells: HEK 293F cells (BacMam baculovirus, pFastBacMam)
T2 sequence (Q96LA8 with tags, fused parts or gaps): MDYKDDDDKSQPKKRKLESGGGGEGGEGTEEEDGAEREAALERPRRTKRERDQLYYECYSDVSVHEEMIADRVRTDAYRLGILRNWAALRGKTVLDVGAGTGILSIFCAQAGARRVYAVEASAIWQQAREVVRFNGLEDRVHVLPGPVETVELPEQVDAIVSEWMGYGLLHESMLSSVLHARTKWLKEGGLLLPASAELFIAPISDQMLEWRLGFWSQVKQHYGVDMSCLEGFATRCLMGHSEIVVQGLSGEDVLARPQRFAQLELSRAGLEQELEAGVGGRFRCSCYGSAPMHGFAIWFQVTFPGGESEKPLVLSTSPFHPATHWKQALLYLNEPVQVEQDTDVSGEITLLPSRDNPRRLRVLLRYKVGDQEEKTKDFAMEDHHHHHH
Source text: as §1, with “(BSG), sodium butyrate” for “(BSG),”
Peptide representative of human histone H4 residues 36-50 was synthesized with an N-terminal linker-affinity tag motif and a C-terminal amide cap by 21st Century Biochemicals.
The amplified gene was subcloned into pFastBacMam (Viva Biotech).
Recombinant baculovirus were generated according to Bac-to-Bac kit instructions (Life Technologies). […] Infections were carried out at 37° C. for 48 hours, harvested by centrifugation, and stored at −80° C. for purification.
Column was washed with 20 mM imidazole in the same buffer and Flag-PRMT6-His was eluted with 150 mM imidazole. Pooled fractions were dialysed against buffer Ni-A and further purified by anti-flag M2 affinity chromatography. Flag-PRMT6-His was eluted with 200 ug/ml FLAG peptide in the same buffer. Pooled fractions were dialysed in 20 mM Tris, 150 mM NaCl, 10% glycerol and 5 mM β-mercaptoethanol, pH 7.8.
General Procedure for PRMT6 Enzyme Assays on Peptide Substrates.
as §2, with “PRMT6,” for “PRMT1,”, “PRMT6” for “PRMT1”, “400” for “300”
as §3, §4

[3] = test system: mono-methyl arginine in RKO cells; assay: RKO Methylation Assay, In Cell Western (ICW); format: cell-based; details: 72 hours
Source text: RKO adherent cells were purchased from ATCC (American Type Culture Collection), Manassas, Va., USA. DMEM/Glutamax medium, penicillin-streptomycin, heat inactivated fetal bovine serum, 0.05% trypsin and D-PBS were purchased from Life Technologies, Grand Island, N.Y., USA. Odyssey blocking buffer, 800CW goat anti-rabbit IgG (H+L) antibody, and Licor Odyssey infrared scanner were purchased from Licor Biosciences, Lincoln, Nebr., USA. Mono-methyl arginine antibody was purchased from Cell Signaling Technology, Danvers, Mass., USA. Methanol was purchased from VWR, Franklin, Mass., USA. 10% Tween 20 was purchased from KPL, Inc., Gaithersburg, Md., USA. DRAQ5 was purchased from Biostatus Limited, Leicestershire, UK.
RKO adherent cells were maintained in growth medium (DMEM/Glutamax medium supplemented with 10% v/v heat inactivated fetal bovine serum and 100 units/mL penicillin-streptomycin) and cultured at 37° C. under 5% CO2.
Cell treatment, In Cell Western (ICW) for detection of mono-methyl arginine and DNA content.
Compound (100 nL) from a 96-well source plate was added directly to 384 well cell plate. Plates were incubated at 37° C., 5% CO2 for 72 hours. After three days of incubation, plates were brought to room temperature outside of the incubator for ten minutes and blotted on paper towels to remove cell media. 50 μL of ice cold 100% methanol was added directly to each well and incubated for 30 min at room temperature. After 30 min, plates were transferred to a Biotek EL406 plate washer and washed 2 times with 100 μL per well of wash buffer (1×PBS). Next 60 μL per well of Odyssey blocking buffer (Odyssey Buffer with 0.1% Tween 20 (v/v)) were added to each plate and incubated 1 hour at room temperature. Blocking buffer was removed and 20 μL per well of primary antibody was added (mono-methyl arginine diluted 1:200 in Odyssey buffer with 0.1% Tween 20 (v/v)) and plates were incubated overnight (16 hours) at 4° C. Plates were washed 5 times with 100 μL per well of wash buffer. […] The plates were washed 5 times with 100 μL per well wash buffer then 2 times with 100 μL per well of water. Plates were allowed to dry at room temperature then imaged on the Licor Odyssey machine which measures integrated intensity at 700 nm and 800 nm wavelengths. Both 700 and 800 channels were scanned.
First, the ratio for each well was determined by:
Each plate included fourteen control wells of DMSO only treatment (minimum activation) as well as fourteen control wells for maximum activation treated with 20 μM of a reference compound. The average of the ratio values for each control type was calculated and used to determine the percent activation for each test well in the plate. Reference compound was serially diluted three-fold in DMSO for a total of nine test concentrations, beginning at 20 μM. Percent activation was determined and EC30 curves were generated using triplicate wells per concentration of compound.

[4] = biological target: human PRMT8 (Homo sapiens, UniProt Q9NR22); assay: PRMT8 Biochemical Assay; details: PRMT8 IC50 (uM), peptide substrate, 3H-SAM Flashplate assay
human PRMT8, sequence (Q9NR22 whole entry): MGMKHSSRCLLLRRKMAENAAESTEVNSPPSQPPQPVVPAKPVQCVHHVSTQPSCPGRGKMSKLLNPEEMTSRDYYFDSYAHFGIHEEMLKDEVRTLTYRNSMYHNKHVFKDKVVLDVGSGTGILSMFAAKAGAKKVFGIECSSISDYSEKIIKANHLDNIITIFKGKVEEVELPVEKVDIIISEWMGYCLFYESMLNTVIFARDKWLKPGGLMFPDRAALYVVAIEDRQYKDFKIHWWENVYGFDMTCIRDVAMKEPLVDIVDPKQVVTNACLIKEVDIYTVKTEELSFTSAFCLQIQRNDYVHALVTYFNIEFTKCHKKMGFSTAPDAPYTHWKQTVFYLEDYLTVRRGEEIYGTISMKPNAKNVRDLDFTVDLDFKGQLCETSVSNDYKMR
Source text: S-adenosylmethionine (SAM), S-adenosylhomocysteine (SAH), bicine, Tween20, dimethylsulfoxide (DMSO), bovine skin gelatin (BSG), isopropyl-3-D-thiogalactopyranoside (IPTG), and Tris(2-carboxyethyl)phosphine hydrochloride solution (TCEP) were purchased from Sigma-Aldrich at the highest level of purity possible. ^3H-SAM was purchase from American Radiolabeled Chemicals with a specific activity of 80 Ci/mmol. 384-well streptavidin Flashplates were purchased from PerkinElmer.
E. coli (BL21(DE3) Gold, Stratagene) made competent by the CaCl2 method were transformed with the PRMT8 construct and ampicillin selection. Protein over-expression was accomplished by growing the PRMT8 expressing E. coli clone and inducing expression with 0.3 mM IPTG at 16° C. The culture was grown for 12 hours, harvested by centrifugation, and stored at −80° C. for purification.
GST-tagged PRMT8 was eluted with 50 mM Tris, 2 mM glutathione, pH 7.8. Pooled fractions were cleaved by thrombin (10U) and dialysed in buffer A. GST was removed by reloading the cleaved protein sample onto glutathione sepharose column and PRMT8 was collected in the flow-through fractions. PRMT8 was purified further by ceramic hydroxyapatite chromatography. The column was washed with 50 mM phosphate buffer, 100 mM NaCl, 5% glycerol, 5 mM β-mercaptoethanol, pH 7.8 and PRMT8 was eluted by 100 mM phosphate in the same buffer. Protein was concentrated and buffer was exchanged to 50 mM Tris, 300 mM NaCl, 10% glycerol, 5 mM β-mercaptoethanol, pH 7.8 by ultrafiltration.
General Procedure for PRMT8 Enzyme Assays on Peptide Substrates.
The assays were all performed in a buffer consisting of 20 mM Bicine (pH=7.6), 1 mM TCEP, 0.005% BSG, and 0.002% Tween 20, prepared on the day of use. […] DMSO (1 ul) was added to Columns 11, 12, 23, 24, rows A-H for the maximum signal control and 1 ul of SAH, a known product and inhibitor of PRMT8, was added to columns 11, 12, 23, 24, rows I-P for the minimum signal control. A cocktail (40 ul) containing the PRMT8 enzyme was added by Multidrop Combi (Thermo-Fisher). The compounds were allowed to incubate with PRMT8 for 30 min at room temperature, then a cocktail (10 ul) containing ^3H-SAM and peptide was added to initiate the reaction (final volume=51 ul). […] The assays were stopped by the addition of non-radiolabeled SAM (10 ul) to a final concentration of 400 uM, which dilutes the ^3H-SAM to a level where its incorporation into the peptide substrate is no longer detectable. 50 ul of the reaction in the 384-well polypropylene plate was then transferred to a 384-well Flashplate and the biotinylated peptides were allowed to bind to the streptavidin surface for at least 1 hour before being washed once with 0.1% Tween20 in a Biotek ELx405 plate washer. The plates were then read in a PerkinElmer TopCount plate reader to measure the quantity of ^3H-labeled peptide bound to the Flashplate surface, measured as disintegrations per minute (dpm) or alternatively, referred to as counts per minute (cpm).

[5] = peptide substrate, 3H-SAM Flashplate assay, read-out: PRMT6 IC50

T1 sequence (Q99873 with tags, fused parts or gaps): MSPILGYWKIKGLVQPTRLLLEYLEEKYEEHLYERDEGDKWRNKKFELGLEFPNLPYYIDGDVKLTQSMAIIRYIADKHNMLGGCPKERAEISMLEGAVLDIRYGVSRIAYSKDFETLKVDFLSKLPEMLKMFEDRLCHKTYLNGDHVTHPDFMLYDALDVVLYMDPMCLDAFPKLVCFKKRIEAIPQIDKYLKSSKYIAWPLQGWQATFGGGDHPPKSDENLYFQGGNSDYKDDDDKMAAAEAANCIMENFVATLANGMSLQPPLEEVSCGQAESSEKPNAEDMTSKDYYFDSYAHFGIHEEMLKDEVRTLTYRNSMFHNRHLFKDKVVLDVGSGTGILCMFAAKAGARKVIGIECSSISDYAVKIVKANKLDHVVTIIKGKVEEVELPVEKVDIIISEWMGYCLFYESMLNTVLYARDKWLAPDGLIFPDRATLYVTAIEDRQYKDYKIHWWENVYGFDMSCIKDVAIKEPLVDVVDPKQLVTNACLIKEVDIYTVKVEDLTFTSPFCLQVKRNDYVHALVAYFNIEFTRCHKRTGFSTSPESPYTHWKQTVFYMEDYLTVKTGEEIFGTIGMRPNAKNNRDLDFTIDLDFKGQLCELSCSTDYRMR

| Compound | IC50 [1] | IC50 [2, 5] | IC50 [4] | ICW EC30 [3] | IC50 ([2]; PRMT6 IC50 (uM)) |
| --- | --- | --- | --- | --- | --- |
| C=C(C)COc1c(Cl)cc(-c2n[nH]cc2CN(C)CCNC)cc1Cl [Compound 7] | 4.86 nM | 0.0131 µM | 0.0124 µM | 91.54 nM | – |
| CNCCN(C)Cc1c[nH]nc1-c1ccc(N(C)CCCOc2ccc(OC)cc2)cc1 [Compound 10] | 5.21 nM | 0.00825 µM | 0.0124 µM | 176.2 nM | – |
| CNCCN(C)Cc1c[nH]nc1-c1ccc(N(C)CCCOc2ccc(OC)cc2)cc1 [Compound 12] | 5.25 nM | 0.0146 µM | 0.0264 µM | 449.8 nM | – |
| CNCCN(C)Cc1c[nH]nc1-c1ccc(OCCOc2ccc(Oc3ccc(OCCOC)cc3)cc2)cc1 [Compound 15] | 5.79 nM | 0.00238 µM | 0.0193 µM | 220.1 nM | – |
| CCC(CC)Oc1ccc(-n2nccc2CN(C)CCNC)cc1 [Compound 18] | 5.86 nM | – | 0.0153 µM | 91.46 nM | 0.0678 µM |
| CNCCN(C)Cc1c[nH]nc1-c1cc(F)c(OC2COC2)c(C(F)(F)F)c1 [Compound 23] | 6.47 nM | 0.0169 µM | 0.0608 µM | 1296 nM | – |
| CNCCN(C)Cc1c[nH]nc1-c1cc(OCCOC)cc(C(F)F)c1 [Compound 24] | 6.5 nM | 0.212 µM | 0.132 µM | 1251 nM | – |
| CNCCN(C)Cc1c[nH]nc1-c1ccc(OCCc2ccccc2)cc1 [Compound 25] | 6.68 nM | 0.011 µM | 0.0173 µM | 97 nM | – |
| CNCCN(C)Cc1c[nH]nc1-c1cc(F)c(Cl)c(C(F)(F)F)c1 [Compound 27] | 6.75 nM | 0.0214 µM | 0.037 µM | 377 nM | – |
| COCCOc1cc(-c2n[nH]cc2CN(C)CCN)cc(C(F)F)c1 [Compound 29] | 6.94 nM | 0.276 µM | 0.112 µM | 5437 nM | – |
| CN(CCN)Cc1c[nH]nc1-c1cc(F)c(Cl)c(C(F)(F)F)c1 [Compound 30] | 7.05 nM | 0.0135 µM | 0.0608 µM | 648 nM | – |
| CNCCN(C)Cc1c[nH]nc1-c1ccc(OCCOc2cccc(OCCC(O)CO)c2)cc1 (centres unmarked) [Compound 31] | 7.08 nM | 0.00432 µM | 0.02 µM | 2325.4 nM | – |

Further lines, with some results ahead:

| IC50 [1] | IC50 [2, 5] | IC50 [4] | Compound | ICW EC30 [3] | IC50 ([2]; PRMT6 IC50 (uM)) |
| --- | --- | --- | --- | --- | --- |
| 4.79 nM | 0.00343 µM | 0.0192 µM | CNCCN(C)Cc1c[nH]nc1-c1ccc(OCCOc2ccc(Oc3ccccc3)cc2)cc1 [Compound 6] | 328.2 nM | – |
| 4.91 nM | 0.00449 µM | 0.00939 µM | CNCCN(C)Cc1c[nH]nc1-c1ccc(OCCOc2cccc(OCCN3CCOCC3)c2)cc1 [Compound 8] | 233.7 nM | – |
| 5.12 nM | 0.00222 µM | 0.024 µM | CNCCN(C)Cc1c[nH]nc1-c1ccc(OCCOc2ccc(OCc3ccccc3)cc2)cc1 [Compound 9] | 329.1 nM | – |
| 5.23 nM | 0.00403 µM | 0.0133 µM | CNCCN(C)Cc1c[nH]nc1-c1ccc(OCCOc2ccc(C3CCOCC3)cc2)cc1 [Compound 11] | 113.8 nM | – |
| 5.49 nM | 0.00518 µM | 0.0146 µM | CNCCN(C)Cc1c[nH]nc1-c1ccc(OCCOc2cccc(OCCC3CCOCC3)c2)cc1 [Compound 14] | 347.3 nM | – |
| 5.8 nM | 0.0037 µM | 0.0206 µM | CNCCN(C)Cc1c[nH]nc1-c1ccc(OCCOc2ccc(CO)cc2)cc1 [Compound 16] | 276.3 nM | – |
| 6.16 nM | 0.0169 µM | 0.0199 µM | CCN(CCOc1ccc(OC)cc1)c1ccc(-c2n[nH]cc2CN(C)CCNC)cc1 [Compound 20] | 336.2 nM | – |
| 6.23 nM | 0.00616 µM | 0.026 µM | CNCCN(C)Cc1c[nH]nc1-c1ccc(OCCOc2ccc(C(O)CO)cc2)cc1 (centres unmarked) [Compound 21] | 3184 nM | – |
